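The compound was tested at five concentrations on cells cultured in 96-well plates, with a 48-hour exposure period. Abbreviation: GI50, concentration required for 50% inhibition of growth. TGI is the concentration that stops growth completely.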

Data on 31 compounds can be found in PubChem BioAssay (NCI).

For one assay, the system named is SN12C renal. Put plainly: growth of human tumour cells (NCI), 48 h.
On to `COC(=O)[C@H]1C=C[C@@H](C)n2c(=O)c3cc4ccccc4cc3c(=O)n21`, for which the TGI was greater than 100 µM.
Compound `COc1cc(C=O)c(-c2cc(OC)c(OC)cc2C=O)cc1OC` had a TGI greater than 100 µM.
`N#CC(C(=O)C(=O)Nc1ccc(Cl)cc1)c1ccccc1` (stereo unspecified) returned a TGI greater than 100 µM.
In the case of `COc1c[c]([Hg][O]C(C)=O)c(OC)c(NC(=O)CC(C)=O)[c]1[Hg][O]C(C)=O`, the GI50 is 13.7 µM and the TGI turned out to be 27.8 µM.
`COC(=O)/C=C1\CCC(C)O1` (stereo unspecified) came in with a TGI greater than 100 µM.
The same measure, in the same setting: with `O=C(/C=C/c1ccccc1Cl)NC1C=Nc2ccc([N+](=O)[O-])cc2NC1` (stereo unspecified) the figure was greater than 100 µM; with `CCCO/S(=N\S(=O)(=O)c1ccccc1)c1ccccc1[N+](=O)[O-]` (stereo unspecified), greater than 100 µM; with `Cc1ccc(C)c(N=C2NC(=O)C(CC(=O)Nc3ccc(Cl)cc3Cl)S2)c1` (stereo unspecified), greater than 100 µM.
Same read-out and setting: with `Cc1cc(NS(=O)(=O)c2ccc(Nc3c4ccccc4nc4c(C(=O)N5CCN(CCO)CC5)ccc(Cl)c34)cc2)no1` the figure was greater than 100 µM.
As for `COc1ccc(-c2ccc(-c3ccc(C(=N)N)s3)s2)cc1`, the GI50 is 0.205 µM and the TGI was found to be 0.465 µM.
With `Cc1nc([N+](=O)[O-])cn1CC(=N)N`, the TGI is greater than 100 µM.
On the same count and under the same terms, to `COC(=O)/C=C/c1c(CC=C(C)C)ncn1C` belongs greater than 100 µM; to `CC(C)C(=O)Nc1nc2c(ncn2C2OC(CO)C(O)C2O)c(=O)[nH]1` (stereo unspecified), greater than 100 µM; to `O=S(=O)(c1ccccc1)C1CN2OC1(S(=O)(=O)c1ccccc1)CC2c1ccc(Br)cc1` (stereo unspecified), greater than 100 µM.
Still for that read-out and setting: to `O=Cc1ccc2c(c1-c1c(C=O)ccc3c1OCO3)OCO2` belongs greater than 100 µM.
On to `O=C1NC(=NCCc2cccc(Cl)c2)S/C1=C\c1ccc2ncccc2c1`, for which the GI50 is greater than 25 µM and the TGI is greater than 25 µM.
In the case of `CC(=O)O[C@H]1CCC2[C@@H]3CCC4Nc5[nH]ncc5C[C@]4(C)C3CC[C@@]21C` (stereo partly specified), the TGI is greater than 100 µM.
Same read-out and setting: to `Cc1cc(C)nc(NS(=O)(=O)c2ccc(NC(=O)c3cccc4c(Nc5ccc(S(N)(=O)=O)cc5)c5ccccc5nc34)cc2)n1` belongs greater than 82.6 µM; to `Cc1cc(S(=O)(=O)O)c(NC(=O)C(=O)Cc2cc(=O)oc3cc(O)ccc23)cc1Cl`, greater than 100 µM.

In another assay the test system is U251 CNS. Put plainly: growth of human tumour cells (NCI), 48 h.
In turn, `CC(C)C(=O)NS(=O)(=O)c1ccccc1` had a TGI greater than 100 µM.
Compound `COC1(OC)CC2C(=O)N(Cc3ccccc3)C1C=C2S(=O)(=O)c1ccccc1` (stereo unspecified) displayed a TGI of 29 µM.
Turning to `CC(=O)[O][Ga]([Br])[O]C(C)=O`, the GI50 is greater than 100 µM and the TGI is greater than 100 µM.
With `COc1cc2c(OC)cc1CSCc1sc(C)c(c1Br)CSC2`, the TGI is greater than 100 µM.
In turn, `CC(C)N(C(=O)C12C3C4C1(I)C1C2C3(I)C41C(=O)N(C(C)C)C(C)C)C(C)C` (stereo unspecified) came in with a TGI greater than 100 µM.
In turn, `Cc1cccc(C)c1NC(=O)C(=O)C(C(=O)c1ccccc1-c1ccccc1)C1OC(=O)c2ccccc21` (stereo unspecified) came in with a TGI of 30.7 µM.
Regarding `COc1cc2c(c(OC)c1OC)-c1ncc3cc4c(cc3c1C2)OCO4`, the GI50 is 21.6 µM and the TGI amounted to 54.2 µM.
In the same order, the values of `CC1=C(C(=O)Nc2ccc(Cl)c(Cl)c2)C(c2cccc(Oc3ccccc3)c2)NC(=O)N1` (stereo unspecified) are 5.28 µM and 14.7 µM.
`CC1COC(C)(C)P(=O)(c2ccccc2)C1` (stereo unspecified) came in with a TGI greater than 100 µM.
Still for that read-out and setting: to `Cc1ccc(S(=O)(=O)c2ccc(N)cc2)cc1` belongs greater than 100 µM; to `CCOP(=O)(OCC)OC1C=CC2CCC1C2` (stereo unspecified), greater than 100 µM.
On the same count and under the same terms, to `COC(=O)[C@H]1C=C[C@@H](C)n2c(=O)c3cc4ccccc4cc3c(=O)n21` belongs greater than 100 µM; to `COc1cc(C=O)c(-c2cc(OC)c(OC)cc2C=O)cc1OC`, greater than 100 µM.
The same measure, in the same setting: to `N#CC(C(=O)C(=O)Nc1ccc(Cl)cc1)c1ccccc1` (stereo unspecified) belongs greater than 100 µM.
For `COc1c[c]([Hg][O]C(C)=O)c(OC)c(NC(=O)CC(C)=O)[c]1[Hg][O]C(C)=O`, the GI50 was 12.6 µM and the TGI worked out at 27.8 µM.
Compound `COC(=O)/C=C1\CCC(C)O1` (stereo unspecified) yielded a TGI greater than 100 µM.
The same measure, in the same setting: to `O=C(/C=C/c1ccccc1Cl)NC1C=Nc2ccc([N+](=O)[O-])cc2NC1` (stereo unspecified) belongs greater than 100 µM; to `CCCO/S(=N\S(=O)(=O)c1ccccc1)c1ccccc1[N+](=O)[O-]` (stereo unspecified), greater than 100 µM; to `Cc1ccc(C)c(N=C2NC(=O)C(CC(=O)Nc3ccc(Cl)cc3Cl)S2)c1` (stereo unspecified), greater than 100 µM.
As to `C/C(CC(=O)Nc1cccc(Cl)c1C)=N\NC(=O)c1ccncc1`, the TGI is greater than 100 µM.
On the same count and under the same terms, with `Cc1cc(NS(=O)(=O)c2ccc(Nc3c4ccccc4nc4c(C(=O)N5CCN(CCO)CC5)ccc(Cl)c34)cc2)no1` the figure was greater than 100 µM.
On to `COc1ccc(-c2ccc(-c3ccc(C(=N)N)s3)s2)cc1`, for which the GI50 was 0.179 µM and the TGI is 0.337 µM.
Take `Cc1nc([N+](=O)[O-])cn1CC(=N)N`: the TGI was greater than 100 µM.
On the same count and under the same terms, to `COC(=O)/C=C/c1c(CC=C(C)C)ncn1C` belongs greater than 67.1 µM; to `CC(C)C(=O)Nc1nc2c(ncn2C2OC(CO)C(O)C2O)c(=O)[nH]1` (stereo unspecified), greater than 100 µM.
The same measure, in the same setting: with `O=S(=O)(c1ccccc1)C1CN2OC1(S(=O)(=O)c1ccccc1)CC2c1ccc(Br)cc1` (stereo unspecified) the figure was greater than 100 µM; with `O=Cc1ccc2c(c1-c1c(C=O)ccc3c1OCO3)OCO2`, greater than 100 µM.
In the case of `O=C1NC(=NCCc2cccc(Cl)c2)S/C1=C\c1ccc2ncccc2c1`, the GI50 was greater than 25 µM and the TGI was greater than 25 µM.
As for `CC(=O)O[C@H]1CCC2[C@@H]3CCC4Nc5[nH]ncc5C[C@]4(C)C3CC[C@@]21C` (stereo partly specified), the TGI was greater than 100 µM.
The same measure, in the same setting: with `Cc1cc(C)nc(NS(=O)(=O)c2ccc(NC(=O)c3cccc4c(Nc5ccc(S(N)(=O)=O)cc5)c5ccccc5nc34)cc2)n1` the figure was greater than 71.2 µM; with `Cc1cc(S(=O)(=O)O)c(NC(=O)C(=O)Cc2cc(=O)oc3cc(O)ccc23)cc1Cl`, greater than 100 µM.

The test system of a further assay is UACC-62 melanoma. Put plainly: growth of human tumour cells (NCI), 48 h.
Regarding `CC(C)C(=O)NS(=O)(=O)c1ccccc1`, the TGI is greater than 100 µM.
The same measure, in the same setting: with `COC1(OC)CC2C(=O)N(Cc3ccccc3)C1C=C2S(=O)(=O)c1ccccc1` (stereo unspecified) the figure was 31.3 µM.
Turning to `CC(=O)[O][Ga]([Br])[O]C(C)=O`, the GI50 is greater than 100 µM and the TGI was greater than 100 µM.
On to `COc1cc2c(OC)cc1CSCc1sc(C)c(c1Br)CSC2`, for which the TGI is greater than 100 µM.
Compound `CC(C)N(C(=O)C12C3C4C1(I)C1C2C3(I)C41C(=O)N(C(C)C)C(C)C)C(C)C` (stereo unspecified) came in with a TGI greater than 100 µM.
Still for that read-out and setting: to `Cc1cccc(C)c1NC(=O)C(=O)C(C(=O)c1ccccc1-c1ccccc1)C1OC(=O)c2ccccc21` (stereo unspecified) belongs 36.7 µM.
